Target: T1, KRas-G12D (Homo sapiens, UniProt P01116, G12D)
T1 construct: insert the HiBiT tag onto the N-terminus of one or more of the endogenous KRas alleles; host or cells: AsPC-1 HiBiT-KRasG12D knock-in clone (one tagged allele, two untagged KRasG12D alleles)
Assay: HiBiT Degradation Assay (G12D), AsPC-1 HiBiT-KRasG12D cells, 24 hr
Type: cell-based
Conditions: for Dmax: ASPC1, AsPC-1 cells, maximum degradation observed; for DC50: AsPC-1 cells
In short: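 Degradation was read after 24 hr compound exposure (0.5% DMSO, 37° C) by Nano-Glo HiBiT lytic luminescence in AsPC-1 cells carrying a HiBiT tag on one of three KRasG12D alleles. Signal relative to DMSO gave DC50 and Dmax by 4-parameter fit; alamar blue fluorescence monitored cytotoxicity.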

T1 sequence (P01116 1-188 isoform P01116-2 G12D): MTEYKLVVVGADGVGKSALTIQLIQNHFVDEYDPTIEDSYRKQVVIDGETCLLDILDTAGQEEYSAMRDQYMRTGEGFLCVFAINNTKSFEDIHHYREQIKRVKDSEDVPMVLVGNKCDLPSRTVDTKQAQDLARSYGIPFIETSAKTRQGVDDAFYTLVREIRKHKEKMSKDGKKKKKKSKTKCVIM

Row | Structure (SMILES) | Dmax [%] | DC50 [µM]
1 | C#Cc1c(F)ccc2cc(O)cc(-c3ncc4c(N5CC6CCC(C5)N6)nc(OC[C@@H](C)N5CCC(CC6CCN(CC7CCN(c8ccc9c(c8)n(C(C)C)c(=O)n9C8CCC(=O)NC8=O)CC7)CC6)CC5)nc4c3F)c12 (stereo partly drawn) [Compound 184, 3-[5-(4-{[4-({1-[(2R)-1-[(4-{3,8-diazabicyclo[3.2.1]octan-3-yl}-7-(8-ethynyl-7-fluoro-3-hydroxynaphthalen-1-yl)-8-fluoropyrido[4,3-d]pyrimidin-2-yl)oxy]propan-2-yl]piperidin-4-yl}methyl)piperidin-1-yl]methyl}piperidin-1-yl)-2-oxo-3-(propan-2-yl)-2,3-dihydro-1H-1,3-benzodiazol-1-yl]piperidine-2,6-dione] | > 70 | < 5.1
2 | C#Cc1c(F)ccc2cc(O)cc(-c3ncc4c(N5CC6CCC(C5)N6)nc(OC[C@@H](C)N5CCC(CC6CCN(CC7CCN(c8ccc9c(c8F)CN(C8CCC(=O)NC8=O)C9=O)CC7)CC6)CC5)nc4c3F)c12 (stereo partly drawn) [Compound 185, 3-[5-(4-{[4-({1-[(2R)-1-[(4-{3,8-diazabicyclo[3.2.1]octan-3-yl}-7-(8-ethynyl-7-fluoro-3-hydroxynaphthalen-1-yl)-8-fluoropyrido[4,3-d]pyrimidin-2-yl)oxy]propan-2-yl]piperidin-4-yl}methyl)piperidin-1-yl]methyl}piperidin-1-yl)-4-fluoro-1-oxo-2,3-dihydro-1H-isoindol-2-yl]piperidine-2,6-dione] | > 70 | < 5.1
3 | C#Cc1c(F)ccc2cc(O)cc(-c3ncc4c(N5CC6CCC(C5)N6)nc(OCC5(CN6CCN(CC7CCN(c8ccc9c(c8Cl)CN(C8CCC(=O)NC8=O)C9=O)CC7)CC6)CC5)nc4c3F)c12 (stereo not shown) [Compound 186, 3-{4-chloro-5-[4-({4-[(1-{[(4-{3,8-diazabicyclo[3.2.1]octan-3-yl}-7-(8-ethynyl-7-fluoro-3-hydroxynaphthalen-1-yl)-8-fluoropyrido[4,3-d]pyrimidin-2-yl)oxy]methyl}cyclopropyl)methyl]piperazin-1-yl}methyl)piperidin-1-yl]-1-oxo-2,3-dihydro-1H-isoindol-2-yl}piperidine-2,6-dione] | > 70 | < 5.1
4 | C#Cc1c(F)ccc2cc(O)cc(-c3ncc4c(N5CC6CCC(C5)N6)nc(OCC5(CN6CCC(CN7CCN(c8ccc9c(c8Cl)CN(C8CCC(=O)NC8=O)C9=O)CC7)CC6)CC5)nc4c3F)c12 (stereo not shown) [Compound 187, 3-{4-chloro-5-[4-({1-[(1-{[(4-{3,8-diazabicyclo[3.2.1]octan-3-yl}-7-(8-ethynyl-7-fluoro-3-hydroxynaphthalen-1-yl)-8-fluoropyrido[4,3-d]pyrimidin-2-yl)oxy]methyl}cyclopropyl)methyl]piperidin-4-yl}methyl)piperazin-1-yl]-1-oxo-2,3-dihydro-1H-isoindol-2-yl}piperidine-2,6-dione] | > 70 | < 5.1
5 | C#Cc1c(F)ccc2cc(O)cc(-c3ncc4c(N5CC6CCC(C5)N6)nc(OCC5(CN6CCN(CC7CCN(c8ccc9c(c8)n(C)c(=O)n9C8CCC(=O)NC8=O)CC7)CC6)CC5)nc4c3F)c12 (stereo not shown) [Compound 188, 3-{5-[4-({4-[(1-{[(4-{3,8-diazabicyclo[3.2.1]octan-3-yl}-7-(8-ethynyl-7-fluoro-3-hydroxynaphthalen-1-yl)-8-fluoropyrido[4,3-d]pyrimidin-2-yl)oxy]methyl}cyclopropyl)methyl]piperazin-1-yl}methyl)piperidin-1-yl]-3-methyl-2-oxo-2,3-dihydro-1H-1,3-benzodiazol-1-yl}piperidine-2,6-dione] | > 70 | < 5.1
6 | C#Cc1c(F)ccc2cc(O)cc(-c3ncc4c(N5CC6CCC(C5)N6)nc(OCC5(CN6CCC(CN7CCN(c8ccc9c(c8)n(C)c(=O)n9C8CCC(=O)NC8=O)CC7)CC6)CC5)nc4c3F)c12 (stereo not shown) [Compound 189, 3-{5-[4-({1-[(1-{[(4-{3,8-diazabicyclo[3.2.1]octan-3-yl}-7-(8-ethynyl-7-fluoro-3-hydroxynaphthalen-1-yl)-8-fluoropyrido[4,3-d]pyrimidin-2-yl)oxy]methyl}cyclopropyl)methyl]piperidin-4-yl}methyl)piperazin-1-yl]-3-methyl-2-oxo-2,3-dihydro-1H-1,3-benzodiazol-1-yl}piperidine-2,6-dione] | > 70 | < 5.1
7 | C#Cc1c(F)ccc2cc(O)cc(-c3ncc4c(N5CC6CCC(C5)N6)nc(OCC5(CN6CCC(CC7CCN(c8ccc9c(c8Cl)CN(C8CCC(=O)NC8=O)C9=O)CC7)CC6)CC5)nc4c3F)c12 (stereo not shown) [Compound 190, 3-{4-chloro-5-[4-({1-[(1-{[(4-{3,8-diazabicyclo[3.2.1]octan-3-yl}-7-(8-ethynyl-7-fluoro-3-hydroxynaphthalen-1-yl)-8-fluoropyrido[4,3-d]pyrimidin-2-yl)oxy]methyl}cyclopropyl)methyl]piperidin-4-yl}methyl)piperidin-1-yl]-1-oxo-2,3-dihydro-1H-isoindol-2-yl}piperidine-2,6-dione] | > 70 | < 5.1
8 | C#Cc1c(F)ccc2cc(O)cc(-c3ncc4c(N5CC6CCC(C5)N6)nc(OCC5(CN6CCC(CC7CCN(c8ccc9c(c8)n(C(C)C)c(=O)n9C8CCC(=O)NC8=O)CC7)CC6)CC5)nc4c3F)c12 (stereo not shown) [Compound 191, 3-{5-[4-({1-[(1-{[(4-{3,8-diazabicyclo[3.2.1]octan-3-yl}-7-(8-ethynyl-7-fluoro-3-hydroxynaphthalen-1-yl)-8-fluoropyrido[4,3-d]pyrimidin-2-yl)oxy]methyl}cyclopropyl)methyl]piperidin-4-yl}methyl)piperidin-1-yl]-2-oxo-3-(propan-2-yl)-2,3-dihydro-1H-1,3-benzodiazol-1-yl}piperidine-2,6-dione] | > 70 | < 5.1
9 | C#Cc1c(F)ccc2cc(O)cc(-c3ncc4c(N5CC6CCC(C5)N6)nc(OCC5(CN6CCC(CC7CCN(c8ccc9c(c8F)CN(C8CCC(=O)NC8=O)C9=O)CC7)CC6)CC5)nc4c3F)c12 (stereo not shown) [Compound 192, 3-{5-[4-({1-[(1-{[(4-{3,8-diazabicyclo[3.2.1]octan-3-yl}-7-(8-ethynyl-7-fluoro-3-hydroxynaphthalen-1-yl)-8-fluoropyrido[4,3-d]pyrimidin-2-yl)oxy]methyl}cyclopropyl)methyl]piperidin-4-yl}methyl)piperidin-1-yl]-4-fluoro-1-oxo-2,3-dihydro-1H-isoindol-2-yl}piperidine-2,6-dione] | > 70 | < 5.1
10 | C#Cc1c(F)ccc2cc(O)cc(-c3ncc4c(N5CC6CCC(C5)N6)nc(OCC5(CN6CCC7(CCN(CC8CCN(c9ccc%10c(c9)n(C)c(=O)n%10C9CCC(=O)NC9=O)CC8)CC7)CC6)CC5)nc4c3F)c12 (stereo not shown) [Compound 193, 3-[5-[4-[[3-[[1-[[4-(3,8-diazabicyclo[3.2.1]octan-3-yl)-7-(8-ethynyl-7-fluoro-3-hydroxy-1-naphthyl)-8-fluoro-pyrido[4,3-d]pyrimidin-2-yl]oxymethyl]cyclopropyl]methyl]-3,9-diazaspiro[5.5]undecan-9-yl]methyl]-1-piperidyl]-3-methyl-2-oxo-benzimidazol-1-yl]piperidine-2,6-dione] | > 70 | < 5.1
11 | C#Cc1c(F)ccc2cc(O)cc(-c3ncc4c(N5CC6CCC(C5)N6)nc(OC[C@H](C)N5CCC(CC6CCN(CC7CCN(c8ccc9c(c8F)CN(C8CCC(=O)NC8=O)C9=O)CC7)CC6)CC5)nc4c3F)c12 (stereo partly drawn) [Compound 194, 3-[5-[4-[[4-[[1-[(1S)-2-[4-(3,8-diazabicyclo[3.2.1]octan-3-yl)-7-(8-ethynyl-7-fluoro-3-hydroxy-1-naphthyl)-8-fluoro-pyrido[4,3-d]pyrimidin-2-yl]oxy-1-methyl-ethyl]-4-piperidyl]methyl]-1-piperidyl]methyl]-1-piperidyl]-4-fluoro-1-oxo-isoindolin-2-yl]piperidine-2,6-dione] | > 70 | < 5.1
12 | C#Cc1c(F)ccc2cc(O)cc(-c3ncc4c(N5CC6CCC(C5)N6)nc(OC[C@H](C)N5CCC(CC6CCN(CC7CCN(c8ccc9c(c8)n(C(C)C)c(=O)n9C8CCC(=O)NC8=O)CC7)CC6)CC5)nc4c3F)c12 (stereo partly drawn) [Compound 195, 3-[5-[4-[[4-[[1-[(1S)-2-[4-(3,8-diazabicyclo[3.2.1]octan-3-yl)-7-(8-ethynyl-7-fluoro-3-hydroxy-1-naphthyl)-8-fluoro-pyrido[4,3-d]pyrimidin-2-yl]oxy-1-methyl-ethyl]-4-piperidyl]methyl]-1-piperidyl]methyl]-1-piperidyl]-3-isopropyl-2-oxo-benzimidazol-1-yl]piperidine-2,6-dione] | > 70 | < 5.1
13 | C#Cc1c(F)ccc2cc(O)cc(-c3ncc4c(N5CC6CCC(C5)N6)nc(OCC5(CN6CCC(CC7CCN(CC8CCN(c9ccc%10c(c9)n(C)c(=O)n%10C9CCC(=O)NC9=O)CC8)CC7)CC6)CC5)nc4c3F)c12 (stereo not shown) [Compound 196, 3-[5-[4-[[4-[[1-[[1-[[4-(3,8-diazabicyclo[3.2.1]octan-3-yl)-7-(8-ethynyl-7-fluoro-3-hydroxy-1-naphthyl)-8-fluoro-pyrido [4,3-d]pyrimidin-2-yl]oxymethyl]cyclopropyl]methyl]-4-piperidyl]methyl]-1-piperidyl]methyl]-1-piperidyl]-3-methyl-2-oxo-benzimidazol-1-yl]piperidine-2,6-dione] | > 70 | < 5.1
14 | C#Cc1c(F)ccc2cc(O)cc(-c3ncc4c(N5CC6CCC(C5)N6)nc(OCCN5CCC6(CC5)CCN(CC5CCN(c7ccc8c(c7F)n(C)c(=O)n8C7CCC(=O)NC7=O)CC5)CC6)nc4c3F)c12 (stereo not shown) [Compound 197, 3-(5-{4-[(9-{2-[(4-{3,8-diazabicyclo[3.2.1]octan-3-yl}-7-(8-ethynyl-7-fluoro-3-hydroxynaphthalen-1-yl)-8-fluoropyrido[4,3-d]pyrimidin-2-yl)oxy]ethyl}-3,9-diazaspiro[5.5]undecan-3-yl)methyl]piperidin-1-yl}-4-fluoro-3-methyl-2-oxo-2,3-dihydro-1H-1,3-benzodiazol-1-yl)piperidine-2,6-dione] | > 70 | < 5.1
